Assay results: patent US20240299353A1, “COMPOSITIONS AND METHODS FOR TREATING […] 5-MEO-DMT” (Alvarius Pharmaceuticals Ltd., priority 2021, published 2024)

Experiments:
[1] = tested on: pCREB; test: Western blot of pCREB in brain regions, chronic cocaine ± 5-MeO-DMT; assay type: in vivo, Male Wistar rats; details: for pCREB levels: 24 h
Text: (§1) Male Wistar rats aged 7 weeks were acclimatized to the facility for 1 week prior to the beginning of the study. […] Animals were euthanized 23- or 119-hours following vehicle or 5-MeO-DMT administration.
Following euthanasia brain regions of interest were isolated. Briefly, the olfactory bulbs were removed before the brain was placed in a rat brain matrix (FIG. 2A). Sterile blades were inserted at positions 2 and 3 (FIG. 2B) to extract a coronal slice containing the Bregma+˜0.2-+˜2.2 coordinates (FIG. 2C). From this tissue slice a blunted 12 G needle was used to punch dissect the NAc and dorsal striatum (DS) (FIG. 2D-2E) identified using the rat brain atlas (Panxinos and Watson 2nd edition). The PFC, hippocampus (Hip) and amygdala (Amyg) were then blunt dissected (FIG. 3A-3D). All regions were frozen in liquid nitrogen and stored at −80° C. until processed.
These treatment groups were used for the molecular assessment of addiction-linked markers.
Determination of protein concentration—a bicinchoninic acid assay (BCA, ThermoFisher) was conducted to determine the total protein concentration in tissue lysates following manufacturer's instructions. Briefly, bovine serum albumin (BSA) standards were prepared in a serial dilution (0-2.0 mg protein/ml) and 200 μl working reagent (50:1, reagent A: reagent B) was added to each of the standards and samples in a 96 well plate (Greiner). For tissue lysates a 1:10 dilution was performed with cell lysis buffer to ensure absorbance values lay within the working range established by the standards. All samples and standards were added in duplicate. The plate was covered and incubated for 30 mins at 37° C. before absorbance was read at 562 nm on a plate reader (SpectraMax M3). The absorbance values were used to form a standard curve of known protein concentrations and protein concentration of samples were derived using the equation of the line. All samples were standardized to the lowest protein concentration using distilled H20 (dH2O).
SDS-PAGE and Western Blotting—Following equalisation of protein concentrations, 6× sample loading buffer (15% SDS, 15% […], 50% glycerol, 0.01% bromophenol blue, […]) was added to each sample using a dilution factor of 1:5 of the total volumes before boiling at 100° C. for 5 mins. Samples were stored at −20° C. until use. One dimensional sodium-dodecyl-sulphate polyacrylamide gel electrophoresis (SDS-PAGE) was used for protein separation based on molecular weight. The percentage of acrylamide in the resolving or stacking gel was determined by the molecular weight of the protein of interest. […] Protein expression was quantified using Image Studio Lite (Version 5.2) and expression intensities were normalized to a house keeping protein, α-Tubulin or β-actin.

[2] = acute administration in animals; cited from earlier work
[3] = tested on: mGluR5; test: Western blot of mGluR5 in brain regions, chronic cocaine ± 5-MeO-DMT; assay type: in vivo, Male Wistar rats
Text: as §1
Following euthanasia brain regions of interest were isolated. Briefly, the olfactory bulbs were removed before the brain was placed in a rat brain matrix (FIG. 2A). Sterile blades were inserted at positions 2 and 3 (FIG. 2B) to extract a coronal slice containing the Bregma+˜0.2-+˜2.2 coordinates (FIG. 2C). From this tissue slice a blunted 12 G needle was used to punch dissect the NAc and dorsal striatum (DS) (FIG. 2D-2E) identified using the rat brain atlas (Panxinos and Watson 2nd edition). […]
Determination of protein concentration—a bicinchoninic acid assay (BCA, ThermoFisher) was conducted to determine the total protein concentration in tissue lysates following manufacturer's instructions. […] For tissue lysates a 1:10 dilution was performed with cell lysis buffer to ensure absorbance values lay within the working range established by the standards. […] The plate was covered and incubated for 30 mins at 37° C. before absorbance was read at 562 nm on a plate reader (SpectraMax M3). The absorbance values were used to form a standard curve of known protein concentrations and protein concentration of samples were derived using the equation of the line. […]

[4] = tested on: rats; test: Acute adverse effects (serotonin-associated toxicity) in the behaviour study; assay type: in vivo
Procedure: In this instance the animals were 9 weeks old at the initiation of drug exposures and we selected just the high (20 mg/kg) dose of 5-MeO-DMT from the molecular study. […] Due to the number of behavioral paradigms to be completed by each animal we divided the study into two cohorts staggered by two weeks with 8 animals coming from each cohort to make up the 16 animals for each treatment group. 23 hours after 5-MeO-DMT administration the animals were introduced to the open field arena where they were allowed to freely explore the area for 5 mins. Following the open field test (OFT) animals were returned to their home cage for 2 hours before beginning either the elevated plus maze (EPM) or pre-pulse inhibition (PPI) testing. 24 hours after completing the OFT animals were returned to the chamber for the first session in novel object (NO1) testing. The animals were returned to their home cage for 2 hours before beginning the EPM or PPI test. 24 hours after NO1 the animals returned to the open field chamber for the second session in novel object (N02) testing. After completing N02 animals were returned to their home cage for 2 hours before they underwent the forced swim test (FST) pre-test. 24 hours later the animals were returned to the FS cylinders for the FST. Upon completion of the FST all animals were euthanized. A timeline of this experimental cohort is described in FIG. 8A.
Within 5-10 mins of administration a series of symptoms emerged that we believed were indicative of acute serotonin-associated toxicity, usually termed “serotonin syndrome” as a result of excessive serotonergic activity (Haberzettl et al. 2013). These symptoms overlap with those induced by acute psychedelic administration including head twitches, tremor, hind limb abduction, Straub tail, head shaking, head weaving and flat/low body posture however in this instance symptoms progressed rapidly to include hyperthermia, tachycardia, trembling and seizures. […] In total 7 of the 16 animals that were administered 20 mg/kg 5-MeO-DMT died or were euthanized for ethical reasons. […] As the study was divided into two cohorts we consulted with the designated vet in BMF as to what amendments should be made to our study protocol to reduce the risk of harm to animals in cohort 2 and a number of changes were implemented to the study design as outlined below.
The experiment was conducted as described for cohort 1 for the first 13 days of injections. There are a number of notable differences in experimental procedures between the two cohorts of animals to be highlighted. […] Finally, the dose of 5-MeO-DMT was reduced to 10 mg/kg. The order and timing of all the behavioral paradigms were kept constant between the cohorts. A timeline of this experimental cohort is described in FIG. 8B. Additionally, 5-MeO-DMT administrations were staggered so animals could be observed for the duration of acute drug effects and to ensure recovery prior to the next animal being injected. The typical symptoms of psychedelic drug administration outlined above were reproduced in all animals administered 5-MeO-DMT.

With `COc1ccc2[nH]cc(CCN(C)C)c2c1` [5-MeO-DMT, 5-methoxy-N,N-dimethyltryptamine] the pCREB levels ([1]; PFC, cocaine+20 mg/kg 5-MeO-DMT relative to saline+20 mg/kg) was “decrease in pCREB”, the “proportion of pCREB relative to total CREB” value ([1]; PFC, 24 h and 120 h, all treatments) was “no change” and the pCREB levels ([1]; amygdala, 20 mg/kg 5-MeO-DMT in saline-treated animals) was “increased”. The “proportion of pCREB” value ([1]; amygdala, 24 h and 120 h, any of the treatments) was “unchanged by any of the treatments”, the acute toxic signs [2] was “dose-dependently produce ataxia, mydriasis, head nodding, tremor, convulsion and shivering” and the mGluR5 expression ([3]; PFC, 24 h, 20 mg/kg 5-MeO-DMT in saline treated animals) was “significant decrease in receptor expression”. The mGluR5 expression ([3]; nucleus accumbens, 5-MeO-DMT, either tested concentration) was “no change”, the “time to emergence of symptoms indicative of acute serotonin-associated toxicity” value ([4]; cohort 1 (20 mg/kg 5-MeO-DMT)) was 5 to 10 min and the “adverse effects after administration” value ([4]; cohort 1, 20 mg/kg 5-MeO-DMT, 1 h after last saline or cocaine) was “strong adverse effects in a significant proportion of animals”. For the same compound, the “animals that died or were euthanized for ethical reasons” value ([4]; cohort 1, all animals administered 20 mg/kg 5-MeO-DMT) was 7 of the 16, the “animals that died or were euthanized” value ([4]; cohort 1, cocaine+5-MeO-DMT (20 mg/kg) group) was 5 animals and the “animals that died or were euthanized” value ([4]; cohort 1, saline+5-MeO-DMT (20 mg/kg) group) was 2 animals. For the same compound, the “animals euthanized for early signs of serotonin-associated toxicity” value ([4]; cohort 2, saline+5-MeO-DMT (10 mg/kg) group) was 2 animals.
